In patent US10806798B2, “Compound with effects of thrombolysis, free radical scavenging and thrombus-targeting” (Shanghai Lumosa Therapeutics Co., Ltd., priority 2012, dated 2020):

Key:
rats with stroke [1] = assay: Successive treatments starting 4 h after the onset of stroke (Zealonga scores); format: in vivo, SD rats; conditions: for number of rats scored Score 0 / number of rats scored Score 1 / number of rats scored Score 2: urokinase 20000 IU/kg once per day from 4 h after stroke onset, n=6
Method: The efficacy was represented by neural function scores, and a lower score indicates higher efficacy. A 10% chloral hydrate solution was injected intraperitoneally into male SD rats at a dosage of 400 mg/kg body weight for anesthesia. A longitudinal incision was made at the center of the neck, and the right carotid common artery trunk was dissected (about 3 cm in length). Carotid external artery branches were each dissected and ligated at the hyoid level, and the carotid internal artery was dissected at the swollen part of the neck. The open incision in the carotid internal artery and the proximal end of the common carotid artery were occluded respectively with noninvasive arterial clips, and the distal end of the carotid external artery was ligated. A catheter containing 0.5 mL thrombus suspension in normal saline was inserted in the carotid external artery trunk. At the same time when the clip on the carotid internal artery was released, the 0.5 mL thrombus suspension in normal saline in the catheter slowly flew from the carotid external artery to its proximal end, and then was injected into the arteries in brain through the carotid internal artery. Subsequently, the proximal end of the carotid artery was ligated, the arterial clips on the carotid internal artery and the common carotid artery were released, and blood flow was restored. After the wound was stitched up, 20,000 IU penicillin was intramuscularly injected for prevention from infection. After 4 h, compound Ie in normal saline (at a dosage of 1 μmol/kg, n=1), urokinase in normal saline (at a dosage of 20000 IU/kg, n=6) or tPA in normal saline (at a dosage of 3 mg/kg, n=6) was infused through the tail vein. Infusion of compound Ie in normal saline through rat tail vein was carried out once per day for 6 consecutive days, observed for 7 days. The rats were compared to themselves each day, and evaluated for degree of damage in neural function by the Zealonga method. Alternatively, infusion of urokinase in normal saline through rat tail vein was carried out once per day for two consecutive days, the rats were compared to themselves each day, and evaluated for the degree of damage in neural function by the Zealonga method. Alternatively, infusion of tPA in normal saline through rat tail vein was carried out once per day for two consecutive days, the rats were compared to themselves each day, and evaluated for the degree of damage in neural function by the Zealonga method. A score of 0 indicated no sign of loss in neural function, 1 indicated the front limbs on the undamaged side could not stretch out, 2 indicated walking toward the undamaged side, 3 indicated tail-chasing walking in circles toward the undamaged side, 4 indicated involuntary walking with disturbance of consciousness, and 5 indicated death.

rats with stroke [2] = assay: Successive treatments with 1 μmol/kg Ie starting 6 h after the onset of stroke (Zealonga scores); format: in vivo, SD rats
Method: The efficacy was represented by neural function scores, and a lower score indicates higher efficacy. A 10% chloral hydrate solution was injected intraperitoneally into male SD rats at a dosage of 400 mg/kg body weight for anesthesia. A longitudinal open incision was made at the center of the neck, and the right common carotid artery trunk was dissected (about 3 cm in length). Carotid external artery branches were each dissected and ligated at the hyoid level, and the carotid internal artery was dissected at the swollen part of the neck. The open incision in the carotid internal artery and the proximal end of the common carotid artery were occluded respectively with noninvasive arterial clips, and the distal end of the carotid external artery was ligated. A catheter containing 0.5 mL thrombus suspension in normal saline was inserted in the carotid external artery trunk. At the same time when the clip on the carotid internal artery was released, the 0.5 mL thrombus suspension in normal saline in the catheter slowly flew from the carotid external artery to its proximal end, and then was injected into the arteries in brain through the carotid internal artery. Subsequently, the proximal end of the carotid artery was ligated, the arterial clips on the carotid internal artery and the common carotid artery were released, and blood flow was restored. After the wound was stitched up, 20,000 IU penicillin was intramuscularly injected for prevention from infection. After 6 h, compound Ie in normal saline (at a dosage of 1 μmol/kg, n=11), urokinase in normal saline (at a dosage of 20000 IU/kg, n=6) or tPA in normal saline (at a dosage of 3 mg/kg, n=6) was infused through the tail vein. Infusion of compound Ie in normal saline through rat tail vein was carried out once per day for 6 consecutive days, observed for 7 days. The rats were compared to themselves each day, and evaluated for the degree of damage in neural function by the Zealonga method. Alternatively, infusion of urokinase in normal saline through rat tail vein was carried out once per day for two consecutive days, the rats were compared to themselves each day, and evaluated for the degree of damage in neural function by the Zealonga method. Alternatively, infusion of tPA in normal saline through rat tail vein was carried out once per day for two consecutive days, the rats were compared to themselves each day, and evaluated for the degree of damage in neural function by the Zealonga method. A score of 0 indicated no sign of loss in neural function, 1 indicated the front limbs on the undamaged side could not stretch out, 2 indicated walking toward the undamaged side, 3 indicated tail-chasing walking in circles toward the undamaged side, 4 indicated involuntary walking with disturbance of consciousness, and 5 indicated death.

[3] = Day 1, urokinase 20000 IU/kg once per day from 6 h after stroke onset, n=6
[4] = Day 2, urokinase 20000 IU/kg once per day from 6 h after stroke onset, n=6

urokinase
number of rats scored Score 0 (rats with stroke [1]; Day 1): 2 rats
number of rats scored Score 1 (rats with stroke [1]; Day 1): 3 rats
number of rats scored Score 2 (rats with stroke [1]; Day 1): 1 rat rats
number of rats scored Score 0 (rats with stroke [1]; Day 2): 3 rats
number of rats scored Score 1 (rats with stroke [1]; Day 2): 1 rat^ rats
number of rats scored Score 2 (rats with stroke [1]; Day 2): 1 rat rats
rats died (rats with stroke [1]; out of 6 rats, within 48 h, urokinase 20000 IU/kg each day from 4 h after stroke onset): 2
autopsy on the dead rats (rats with stroke [1]; urokinase 20000 IU/kg each day from 4 h after stroke onset): hemorrhage in internal organs, particularly severe hemorrhage in lungs
number of rats scored Score 1 (rats with stroke [2]; [3]): 1 rat rats
number of rats scored Score 2 (rats with stroke [2]; [3]): 1 rat rats
number of rats scored Score 3 (rats with stroke [2]; [3]): 4 rats
number of rats scored Score 0 (rats with stroke [2]; [4]): 1 rat rats
number of rats scored Score 2 (rats with stroke [2]; [4]): 1 rat rats
rats died (rats with stroke [2]; out of 6 rats, within 24 h, urokinase 20000 IU/kg each day from 6 h after stroke onset): 4
autopsy on the dead rats (rats with stroke [2]; urokinase 20000 IU/kg each day from 6 h after stroke onset): hemorrhage in internal organs, particularly severe hemorrhage in lungs
